Test results: ChEMBL document CHEMBL4680301, “Development of a novel acetyl glucose-modified gefitinib derivative to enhance the radiosensitizing effect” (Bioorg Med Chem, 2021)
pIC50: −log10 of the molar value. Activity calls are given as the source filed them. No cut-off for these calls is given here.

Legend:
[1] = Drug metabolism in human A431 cells assessed as 3-((4-((3-Chloro-4-fluorophenyl)amino)-6-(3-morpholinopropoxy)quinazolin-7-yl)oxy)propan-1-ol metabolite formation at 3 uM measured after 24 hrs by HPLC analysis; type: ADME, cell-based; conditions: a-431, 24 h
A-431 [2] = assay: Radio-sensitinzing effect in human A431 cells assessed as reduction in surviving fraction incubated at 1 uM for 24 hrs with X-ray followed by measured after 7 days by Giemsa staining relative to control; type: functional; conditions: time 8 day
A-431 [3] = assay: Cytotoxicity against human A431 cells measured after 24 hrs by WST-1 assay; type: functional, cell-based; conditions: A-431, 24 h
HepG2 [4] = assay: Inhibition of GLUT in human HepG2 cells assessed as inhibition of 2-NBDG uptake at 10 uM incubated for 20 mins by fluorescence microplate reader; type: cell-based
[5] = Drug metabolism in human A431 cells assessed as 4-((4-((3-Chloro-4-fluorophenyl)amino)-6-(3-morpholinopropoxy)quinazolin-7-yl)oxy)butan-1-ol metabolite formation at 3 uM measured after 24 hrs by HPLC analysis; type: ADME, cell-based; conditions: a-431, 24 h
HepG2 [6] = assay: Inhibition of GLUT in human HepG2 cells assessed as inhibition of 2-NBDG uptake incubated for 20 mins by fluorescence microplate reader; type: cell-based; conditions: dose 10-30 µM
[7] = Drug metabolism in human A431 cells assessed as 2-((4-((3-Chloro-4-fluorophenyl)amino)-6-(3-morpholinopropoxy)quinazolin-7-yl)oxy)ethan-1-ol metabolite formation at 3 uM measured after 24 hrs by HPLC analysis; type: ADME, cell-based; conditions: a-431, 24 h

| Drug metabolism [1] | Drug metabolism [5] | Drug metabolism [7] | SMILES | fold change (FC) (A-431 [2]) | pIC50 (A-431 [3]) | inhibition (HepG2 [4]) | inhibition (HepG2 [6]) |
| --- | --- | --- | --- | --- | --- | --- | --- |
| Metabolite_Detected | – | – | CC(=O)OC[C@H]1OC(OCCCOc2cc3ncnc(Nc4ccc(F)c(Cl)c4)c3cc2OCCCN2CCOCC2)[C@H](OC(C)=O)[C@@H](OC(C)=O)[C@@H]1OC(C)=O (stereo partly specified) | 0.216 | 4.43 | – | – |
| – | – | – | C=C1[C@@H](C)[C@H]2[C@H](Cc3ccccc3)NC(=O)[C@]23OC(=O)/C=C/[C@H](O)CCC[C@@H](C)C/C=C/[C@H]3[C@@H]1O | – | – | Active | – |
| – | Metabolite_Detected | – | CC(=O)OC[C@H]1OC(OCCCCOc2cc3ncnc(Nc4ccc(F)c(Cl)c4)c3cc2OCCCN2CCOCC2)[C@H](OC(C)=O)[C@@H](OC(C)=O)[C@@H]1OC(C)=O (stereo partly specified) | 0.202 | 4.40 | – | – |
| – | – | Metabolite_Detected | CC(=O)OC[C@H]1OC(OCCOc2cc3ncnc(Nc4ccc(F)c(Cl)c4)c3cc2OCCCN2CCOCC2)[C@H](OC(C)=O)[C@@H](OC(C)=O)[C@@H]1OC(C)=O (stereo partly specified) | 0.175 | 4.46 | – | Dose-dependent effect |
